The test system of data set [1] is Mycobacterium tuberculosis. Nature of the data set: Antimycobacterial activity against Mycobacterium tuberculosis H37Rv ATCC 27294 assessed as bacterial growth inhibition incubated for 5 days by Alamar blue reagent based assay. The class given is functional. To be noted: ATCC 27294, 120 h, time 5 day. In general terms: Resazurin is reduced to fluorescent resorufin, in cell work by metabolically active cells.

Data set [2] deals with Sporothrix. Nature of the data set: Antifungal activity against Sporothrix brasiliensis assessed as fungal growth inhibition incubated for 48 hrs by CLSI-based broth microdilution assay. The class given is functional. (In general: Dilution methods test growth across graded concentrations, often in twofold steps.)
Data set [3] relates to Sporothrix schenckii. Nature of the data set: Antifungal activity against Sporothrix schenckii assessed as fungal growth inhibition incubated for 48 hrs in presence of itraconazole by CLSI-based broth microdilution assay. The class given is functional.
Data set [4] has as its system Sporothrix schenckii. Nature of the data set: Antifungal activity against Sporothrix schenckii assessed as fungal growth inhibition incubated for 48 hrs by CLSI-based broth microdilution assay. The class given is functional.
Data set [5] deals with Sporothrix. The data set is described as follows: Antifungal activity against Sporothrix brasiliensis assessed as fungal growth inhibition incubated for 48 hrs in presence of itraconazole by CLSI-based broth microdilution assay. The class given is functional.
For data set [6], the system named is HCT-116. Nature of the data set: Cytotoxicity against human HCT-116 cells assessed as reduction in cell viability incubated for 72 hrs by MTT assay. It is filed as functional, cell-based. To be noted: HCT-116, 72 h. A general note: Tetrazolium assays rely on reduction of a dye to a coloured formazan, in cell work by metabolically active cells.
The test system of data set [7] is SF-295. The data set is described as follows: Cytotoxicity against human SF-295 cells assessed as reduction in cell viability incubated for 72 hrs by MTT assay. The class given is functional, cell-based. To be noted: SF-295, 72 h.
Data set [8] can be described thus: Selectivity index, ratio of IC50 for human PBMC cells to IC50 for human HCT-116 cells. The class given is toxicity. The following applies: PBMC cells versus HCT-116 cells, read-out: Ratio IC50.
Data set [9] has as its system K562. Nature of the data set: Cytotoxicity against human K562 cells assessed as reduction in cell viability incubated for 72 hrs by MTT assay. It is filed as functional, cell-based. To be noted: K562, 72 h.
Data set [10] deals with Staphylococcus aureus. Nature of the data set: Antibacterial activity against Staphylococcus aureus 2065 MA assessed as diameter of bacterial growth inhibition by Mueller-Hinton broth based assay. It is filed as functional.
Data set [11] has as its system PC-3. Nature of the data set: Cytotoxicity against human PC-3 cells assessed as reduction in cell viability incubated for 72 hrs by MTT assay. The class given is functional, cell-based. To be noted: PC-3, 72 h.
A short description of data set [12]: Selectivity index, ratio of IC50 for human PBMC cells to IC50 for human K562 cells. The following applies: PBMC cells versus K562 cells, read-out: Ratio IC50. It is filed as toxicity.
For data set [13], the system named is MCF7. Nature of the data set: Cytotoxicity against human MCF7 cells assessed as reduction in cell viability incubated for 72 hrs by MTT assay. It is filed as functional, cell-based. To be noted: MCF7, 72 h.
The nature of data set [14]: Cytotoxicity against mouse L929 cells assessed as reduction in cell viability incubated for 72 hrs by MTT assay. The class given is toxicity, cell-based.
Data set [15] concerns SNB-19. The data set is described as follows: Cytotoxicity against human SNB-19 cells assessed as reduction in cell viability incubated for 72 hrs by MTT assay. The class given is functional, cell-based. To be noted: SNB-19, 72 h.
Data set [16] has as its system B16-F10. Nature of the data set: Cytotoxicity against mouse B16-F10 cells assessed as reduction in cell viability incubated for 72 hrs by MTT assay. The class given is functional, cell-based. To be noted: B16-F10, 72 h.
The test system of data set [17] is HL-60. The data set is described as follows: Cytotoxicity against human HL-60 cells assessed as reduction in cell viability by MTT assay. The class given is functional, cell-based.
For data set [18], the system named is OVCAR-8. The data set is described as follows: Cytotoxicity against human OVCAR-8 cells assessed as reduction in cell viability by MTT assay. The class given is functional, cell-based.
Data set [19] has as its system HCT-116. Nature of the data set: Cytotoxicity against human HCT-116 cells assessed as reduction in cell viability by MTT assay. The class given is functional, cell-based.
Data set [20] relates to SF-295. Nature of the data set: Cytotoxicity against human SF-295 cells assessed as reduction in cell viability by MTT assay. The class given is functional, cell-based.
The test system of data set [21] is SCC-9. The data set is described as follows: Cytotoxicity against human SCC-9 cells assessed as reduction in cell viability incubated for 72 hrs by alamar blue assay. It is filed as functional, cell-based. The following applies: SCC-9, 72 h.
The subject of data set [22] is SCC-4. The data set is described as follows: Cytotoxicity against human SCC-4 cells assessed as reduction in cell viability incubated for 72 hrs by alamar blue assay. The following applies: SCC-4, 72 h. It is filed as functional, cell-based.
The test system of data set [23] is HSC-3. The data set is described as follows: Cytotoxicity against human HSC-3 cells assessed as reduction in cell viability incubated for 72 hrs by alamar blue assay. To be noted: HSC-3, 72 h. The class given is functional, cell-based.
The test system of data set [24] is SCC-15. Nature of the data set: Cytotoxicity against human SCC-15 cells assessed as reduction in cell viability incubated for 72 hrs by alamar blue assay. It is filed as functional, cell-based. The following applies: SCC-15, 72 h.
Data set [25] concerns HL-60. The data set is described as follows: Cytotoxicity against human HL-60 cells assessed as reduction in cell viability incubated for 72 hrs by alamar blue assay. The class given is functional, cell-based. The following applies: HL-60, 72 h.
Data set [26] deals with HepG2. Nature of the data set: Cytotoxicity against human HepG2 cells assessed as reduction in cell viability incubated for 72 hrs by alamar blue assay. The class given is functional, cell-based. To be noted: HepG2, 72 h.
The nature of data set [27]: Cytotoxicity against human ACP02 cells assessed as reduction in cell viability incubated for 72 hrs by alamar blue assay. To be noted: ACP02, 72 h. The class given is functional, cell-based.
Data set [28] in a line: Selectivity index, ratio of IC50 for human PBMC cells to IC50 for human HL-60 cells. The class given is toxicity. To be noted: PBMC cells versus HL-60 cells, read-out: Ratio IC50.
Data set [29] deals with HT-29. Nature of the data set: Cytotoxicity against human HT-29 cells assessed as reduction in cell viability incubated for 72 hrs by alamar blue assay. The following applies: HT-29, 72 h. It is filed as functional, cell-based.
Data set [30] deals with HCT-116. The data set is described as follows: Cytotoxicity against human HCT-116 cells assessed as reduction in cell viability incubated for 72 hrs by alamar blue assay. The class given is functional, cell-based. To be noted: HCT-116, 72 h.
Data set [31] has as its system SCC-25. The data set is described as follows: Cytotoxicity against human SCC-25 cells assessed as reduction in cell viability incubated for 72 hrs by alamar blue assay. It is filed as functional, cell-based. The following applies: SCC-25, 72 h.
Data set [32] in a line: Cytotoxicity against human ACP03 cells assessed as reduction in cell viability incubated for 72 hrs by alamar blue assay. The class given is functional, cell-based. The following applies: ACP03, 72 h.
Data set [33] in a line: Cytotoxicity against human AGP01 cells assessed as reduction in cell viability incubated for 72 hrs by alamar blue assay. The class given is functional, cell-based. The following applies: AGP01, 72 h.
Data set [34] has as its system K562. Nature of the data set: Cytotoxicity against human K562 cells assessed as reduction in cell viability incubated for 72 hrs by alamar blue assay. The class given is functional, cell-based. To be noted: K562, 72 h.
The subject of data set [35] is NCI-H460. The data set is described as follows: Cytotoxicity against human NCI-H460 cells assessed as reduction in cell viability incubated for 72 hrs by MTT assay. It is filed as functional, cell-based. To be noted: NCI-H460, 72 h.
Data set [36] is described as follows: Cytotoxicity against monkey LLC-MK2 cells assessed as reduction in cell viability incubated for 96 hrs by trypan blue assay. The class given is toxicity, cell-based, Macaca mulatta. To be noted: rhesus monkey, read-out: LC50.

In brackets after ≈: the same amount, converted by molar mass.

The term MIC denotes the smallest concentration in the dilution series that meets the test's criterion for growth inhibition. As a reminder, the IC50 is the concentration that inhibits the measured activity by half.

For `Cc1ccc(C2CCC3=C(O2)c2ccccc2C(=O)C3=O)cc1` (stereo not given), the MIC in data set [1] stood at 1.25 µg/mL (≈ 4.11 µM).
The same measure, in the same setting: to `Cc1ccc(C2CC(c3ccccc3)C3=C(O2)c2ccccc2C(=O)C3=O)cc1` (stereo not given) belongs 3.12 µg/mL (≈ 8.2 µM).
On to `O=C1C(=O)c2ccccc2C2=C1CC(c1ccccc1)O2` (stereo not given), for which the MIC in [2] amounted to 2 µM (≈ 0.553 µg/mL); in data set [3] it was 0.06 µM; in data set [4] it was 2 µM (≈ 0.553 µg/mL); in data set [5] it was 0.03 µM.
Consider `CC1(c2ccccc2)CC2=C(O1)c1ccccc1C(=O)C2=O` (stereo not given), for which the MIC in data set [2] worked out at 2 µM (≈ 0.581 µg/mL); in [3], 0.06 µM; in data set [4] it was 2 µM (≈ 0.581 µg/mL); in data set [5], 0.03 µM.
As to `CC1(C)OC2=C(C(=O)C(=O)c3ccccc32)C1Sc1ccccc1` (stereo not given), the IC50 in data set [6], in data set [7], in [9] and in [11] was 0.9 µM each time. For the same compound, the selectivity ratio in [8] was determined as 2.96; in data set [12] it was 2.11. In addition, the zone diameter in data set [10] is 11 mm.
As to `O=C1C(=O)c2ccccc2C2=C1CCC(c1ccccc1)O2` (stereo not given), the MIC in data set [1] amounted to 2.5 µg/mL (≈ 8.61 µM).
For the compound `CC1(C)OC2=C(C(=O)C(=O)c3ccccc32)C1n1cc(C[Se]c2ccccc2)nn1` (stereo not given), the half-maximal inhibitory concentration (IC50) in data set [13], in [6], in data set [15], in [16] and in [11] was 1.06 µM in each case. The IC50 at 72 h in data set [14] was 1.06 µM.
Take `CC1(C)O[C@@H]2O[C@@H](COC3C4=C(OC3(C)C)c3ccccc3C(=O)C4=O)[C@H]3OC(C)(C)O[C@H]3[C@@H]2O1` (stereo not given in full): the 50% inhibitory concentration (IC50) in data set [17], in [18], in [19] and in data set [20] was 0.16 µM throughout.
`CC1(C)OC2=C(CC1I)C(=O)C(=O)c1ccccc12` (stereo not given): the IC50 in data set [21], in data set [22], in data set [23], in data set [24], in [25] and in [26] was 0.02 µM in each case. The IC50 in data set [27], in data set [29], in data set [30], in data set [31], in data set [32] and in [33] was 0.02 µM each time. The IC50 in data set [34] stood at 0.02 µM. Also, the selectivity ratio in data set [28] came out at 1690.
Regarding `CC1(C)OC2=C(C(=O)C(=O)c3ccccc32)[C@H](n2cc(C[Se]c3ccc(F)cc3)nn2)[C@H]1Br`, the IC50 in data set [35] worked out at 1.32 µM; in data set [11] it was 1.06 µM.
Turning to `CCCCCCCCCCC1CC2=C(O1)c1ccccc1C(=O)C2=O` (stereo not given), the CC50 at 96 h in [36] was 1700 µM.

(Values after ChEMBL document CHEMBL5104093, “A comprehensive review on β-lapachone: Mechanisms, structural modifications, and therapeutic potentials” (Eur J Med Chem, 2021).)
